In patent US20210283249A1, “COMBINATION THERAPY FOR CANCER WITH EXON 14 SKIPPING MUTATION(S) OR EXON 14 SKIPPING PHENOTYPE” (Eli Lilly and Company, priority 2016, published 2021):
pIC50: −log10 of the molar value. Where two headings read alike, the source gives them in different places.

Experiments:
[1] = system: Hs746t-derived xenograft of human gastric carcinoma; test: Hs746t xenograft model, Example 2 (sequential and concurrent administration); format: in vivo, mice
Experimental: (§1) Female athymic nude mice (Envigo) are used for this study. Food and water are available ad libitum. Animals are acclimated for 1 week prior to any experimental manipulation. The study is performed in accordance with AAALAC accredited institutional guidelines.
Merestinib is formulated as a solution in 10% PEG 400/90% (20% Captisol in water). Emibetuzumab and IgG control are diluted in PBS. Solutions are freshly prepared every 7 days.
Obtain, maintain, expand, harvest, and wash Hs746t cell as in Example 1. Implant cells into 36 female nu/nu mice at a concentration of 2×10^6 cells in 0.2 ml HBSS subcutaneously into the hind flank of the animal. […] After the 28-day dosing period, animals in the single agent arms are sacrificed. Tumors in the animals in the combination treatment groups are monitored for continued growth or regrowth of tumors.
In these studies, animals are sacrificed using CO2 and cervical dislocation when tumors grow larger than 2000 mm^3, or at the end of study.
Measure tumor volumes and body weight at least twice weeky. Body weight measurement during the course of the study, is a general indicator of tolerability.
(§2) Measure tumor growth with calipers and record body weights twice weekly. Calculate tumor volumes by the formula Volume (mm^3)=L×W^2 (π/6) where L represents the larger diameter and W the smaller diameter. Calculate T/C % using the formula T/C %=100×ΔT/ΔC. Where ΔT=mean tumor volume of the drug-treated group on the final day of the study−mean tumor volume of the drug-treated group on the initial day of the dosing and ΔC=mean tumor volume of the control group on the final day of the study−mean tumor volume of the control group on the initial day of the dosing. Calculate changes in body weight by the formula (Weight on observation day−Weight on day 12)/Weight on Day 12×100. Calculate test for significant differences between treatment groups by RM ANOVA using the JMP (v.9.0.3) statistical package (SAS Institute Inc., Cary, N.C., USA).
Transform tumor volume to the log scale to equalize variance across time and treatment groups. Analyze the log volume data with a two-way repeated measures analysis of variance by time and treatment using the MIXED procedures in SAS software (Version 9.3). The correlation model for the repeated measures is spatial power. Compare treated groups to the control group at each time point. The MIXED procedure is also used separately for each treatment group to calculate adjusted means and standard errors at each time point. Both analyses account for the autocorrelation within each animal and the loss of data that occurs when animals are removed or lost before the end of the study. The adjusted means and standard errors are plotted for each treatment group versus time. […]

[2] = system: Hs746t-derived xenograft of human gastric carcinoma; test: Hs746t xenograft model, Example 1 (combination vs monotherapy); format: in vivo, mice
Experimental: (§3) Hs746t is a gastric cancer cell line known to have MET exon 14 skipping mutation(s) and MET amplification (Asaoka et al., Biochem Biophys Res Commun 394:1042-1046).
as §1
Merestinib is formulated as a solution in 10% PEG 400/90% (20% Captisol in water). Emibetuzumab is diluted in phosphate buffered saline (PBS). Solutions are freshly prepared every 7 days.
Obtain Hs746t cells from ATCC (American Type Culture Collection) and maintain in RPMI 1640 with 10% fetal bovine serum at 37° C. in 5% CO2. Expand cells in culture, harvest, and wash in Hank's Balanced Salt Solution (HBSS, GIBC®). Implant sub-confluent […] cells into 60 female nu/nu mice at a concentration of 1×10^7 cells in 0.2 ml HBSS subcutaneously into the hind flank of the animal.
Administer merestinib by oral gavage at either 6 mg/kg or 12 mg/kg in a dose volume of 0.2 mL in 10% polyethylene glycol 400/90% of a mixture of 20% Captisol in water, and antibody treatments by intraperitoneal injection (IP) starting on day 12 after tumor cell implantation when average tumor volume of 350 mm^3 and ending on Day 33. Inject animals IP in a dosing volume of 10 mg/kg. After 14 days of dosing (Study Day 27), the animals in the control group are sacrificed because of tumor volumes exceeding >2000 mm^3. After the 28-day dosing period, animals in the single agent arms are sacrificed. […]
In both studies, animals are sacrificed using CO2 and cervical dislocation when tumors grow larger than 2000 mm^3, or at the end of study.
Record tumor growth and body weight changes at least twice a week. Body weight measurement during the course of the study, is a general indicator of tolerability.
as §2, with “RMANOVA” for “RM ANOVA”
The p-value from the 2×2 interaction test on day 28 is not significant at p=0.654. All pairwise comparisons between the combination group and each single agent group on day 33 are also statistically significant. […] Full statistical analysis is not feasible as the animals in the vehicle control groups were removed after 14 days of dosing as the animals are sacrificed due to tumor burden.

Hs746t cells = test: Hs746t cell proliferation; format: cell-based, human
Description: as §3

pMET = pMET in Hs746t cells; format: cell-based, human

Compound | tumor volume on re-growth while on treatment ([1]; merestinib 6 mg/kg qd single agent, by Day 37) | maximal tumor regression ([1]; merestinib 6 mg/kg qd, Day 27 (7 days of dosing)) [%] | tumor response course ([2]; merestinib 6 mg/kg qd orally) | T/C ([2]; merestinib 6 mg/kg qd orally, after 21 day dosing) [%] | mice with no tumor regrowth ([2]; merestinib 12 mg/kg cohort, during the 5 weeks post-treatment) | tumor regression ([2]; merestinib 12 mg/kg qd orally, after 21 day dosing) [%] | pIC50 (Hs746t cells; Homo sapiens) | effect on pMET (pMET; at 65-100 nM) | maximum tumor regression ([1]; emibetuzumab 10 mg/kg qw, Day 27) [%] | maximum tumor regression ([1]; emibetuzumab 20 mg/kg qw, Day 37) [%] | tumor response course ([2]; emibetuzumab 10 mg/kg IP qw) | transient tumor regression ([2]; emibetuzumab 10 mg/kg IP qw, after 3 doses) [%] | pIC50 (Hs746t cells) | effect on pMET expression (pMET; at 130-650 nM)
Cc1ccc(C(=O)Nc2ccc(Oc3cc4cnn(C)c4cc3-c3cn[nH]c3)c(F)c2)c(=O)n1-c1ccc(F)cc1 [merestinib, N-(3-Fluoro-4-(1-methyl-6-(1H-pyrazol-4-yl)-1H-indazol-5-yloxy)phenyl)-1-(4-fluorophenyl)-6-methyl-2-oxo-1,2-dihydropyridine-3-carboxamide] | about 500 mm^3 | 30.2 | transient tumor regression followed by re-growth while on treatment | 18.3 | 6/7 | 91.8 | 7.47 | totally eliminates |  |  |  |  |  | 
emibetuzumab: C8-H241-IgG4 anti-human MET antibody: two light chains of SEQ ID NO: 5 and two heavy chains of SEQ ID NO: 7 |  |  |  |  |  |  |  |  | 16.0 | 58.9 | tumors are observed to regrow while on treatment | 37.7 | < 7.00 | no effect
